Measured values published in patent US20220096529A1, “2-HYDROXYPROPYL-BETA-CYCLODEXTRIN (HPBETACD) FOR USE IN THE TREATMENT OF BREAST CANCER” (UNIVERSITY OF THE WITWATERSRAND, JOHANNESBURG, priority 2019, published 2022).
Values joined by “and” are separate entries in the source; they are usually repeats but may differ in a detail not shown here. Equal values may be shown once. “Also recorded” adds a separate entry of the source.

Legend:
[1] = test system: MCF7 cells; experiment: MTT growth inhibition assay; format: cell-based, human
Protocol: (§1) Cells were cultured in appropriate medium supplemented with 10% FCS, penicillin (100 U/ml), and streptomycin (100 μg/ml) (Gibco) at 5% CO2 in a 37° C. incubator.
(§2) Four different cell lines were used MCF7 (ER+). MDA-MB-231 (ER−), MRC-5 (Lung Fibroblasts) and HEK-293 (Embryonic kidney). MRC-5 and/or HEK-293 were used as control cell lines depending on availability.
(§3) In order to determine whether HPβCD has the ability to induce cancer cell death a primary screening using an MTT assay was performed. Three different time points 24 hrs.

[2] = test system: MDA-MB-231 cells; experiment: MTT growth inhibition assay; format: cell-based, human
Protocol: as §1, §2, §3

[3] = test system: MCF7 cells; experiment: BODIPY lipid droplet staining; format: cell-based, human
Protocol: Lipid droplets store cholesterol and HPβCD was able to reduce accumulation and storage of cholesterol in cancer cells (see FIG. 52). […] (A) is untreated, (B) is positive and (C) is treated. […] Lipid droplets store cholesterol and HPβCD was able to reduce accumulation and storage of cholesterol in cancer cells.

[4] = test system: MCF7 cells; experiment: Filipin cholesterol staining; format: cell-based, human
[5] = test system: MCF7 cells; experiment: Alexa Fluor lipid raft staining; format: cell-based, human
Protocol: (B) is positive and (C) is treated.

[6] = test system: MDA-MB-231 tumours; experiment: Hematoxylin and eosin staining of xenograft tumours; format: in vivo, mice
From the text: Hematoxylin and cosin staining of mice was undertaken in untreated, intermediate and late stage MDA-MB-231 mice as is shown in FIG. 36.
The individual cells are markedly pleomorphic and have raised nuclear to cytoplasmic ratios. The neoplastic cells have irregular nuclear borders and the cells have vesicular chromatic with one to multiple prominent nucleoli. Brisk mitotic activity is evident. Areas of perineural and lymphovascular invasion are however, not documented.

[7] = test system: MCF7 cells; experiment: Cholesterol quantification assay; format: cell-based, human; conditions: MCF7, all concentrations 1, 5, 10, 20, 50 mM
Protocol: (§4) To investigate if the apoptosis observed from all the above assays was due to cholesterol depletion, a cholesterol assay was performed on all three cell lines: MCF7, MDA-MB-231 and MRC-5. HPβCD and the positive PL, a known cholesterol depletor were treated for 24 hrs.
(§5) HPβCD and the positive (40 μM PL) were treated for 24 hrs. This assay gave us an estimate of total cholesterol, cholesterol esters and free cholesterol.

[8] = test system: MDA-MB-231 cells; experiment: Cholesterol quantification assay; format: cell-based, human; conditions: MDA-MB-231, all concentrations 1, 5, 10, 20, 50 mM
Protocol: as §4, §5

[9] = test system: MRC-5 cells; experiment: Cholesterol quantification assay; format: cell-based, human
Protocol: as §4, §5

[10] = test system: MCF7 cells; experiment: ROS assay; format: cell-based, human
Protocol: (§6) To further validate the occurrence of apoptosis and to investigate the exact mechanisms if apoptosis, a ROS assay was conducted to capture the production of ROS. […] In order to be in solidarity with this fact, a ROS assay was performed in three cell lines: MCF7, MDA-MB-231 & MRC-5. Like before, HPβCD and the positive (10 mM H2O2) were treated for 24 hrs. The right hand section in each plot represents the production of ROS.

[11] = test system: MDA-MB-231 cells; experiment: ROS assay; format: cell-based, human
Protocol: as §6

[12] = test system: MRC-5 cells; experiment: ROS assay; format: cell-based, human
Protocol: as §6

[13] = AST/ALT assay of mice serum; format: in vivo
Protocol: Post-euthanisation, the mice serum was analysed for AST/ALT ([…]) levels in order to observe if HPβCD treatment had any toxic effects on liver of treated mice (FIG. 37). The AST/ALT ratio gives an estimate of liver toxicity or damage. […] The AST/ALT ratio for all the early and intermediate groups was not different from the untreated group, was under the recommended ratio of 2 and the values were below the reference range (40 U/L) except for AST levels in the late group. In latter groups, the ratio of AST/ALT was 2.2 which was slightly above the recommended limit but was not found to be statistically different from the untreated group. […] In this regard review FIG. 37.

[14] = test system: MCF7 cells; experiment: RT2 Profiler PCR Array Human Lipoprotein Signaling & Cholesterol Metabolism; format: cell-based; conditions: MCF7, majority of genes
From the text: (§7) PCR (polymerase chain reaction) arrays were run to identify gene expression changes in cancer cells after treatment with HPβCD. The differentially expressed genes along with their significance for cancer, some genes were selected for further drug-protein interaction studies.
(§8) Results from RT^2 Profiler™ PCR Array Human Lipoprotein Signaling & Cholesterol Metabolism (MCF7 and MDA-MB-231) are shown in FIG. 38.

[15] = test system: MDA-MB-231 cells; experiment: as above; format: cell-based
From the text: as §7, §8

[16] = late stage treated mice, one value per case

With 2-hydroxypropyl-β-cyclodextrin [HPβCD] the growth inhibition ([1]; MCF7, 10 mM HPβCD, all three time points (24, 48, 72 hrs)) was ~45%, the IC50 ([1]; MCF7, 24 hrs) was 11.1 mM and the IC50 ([1]; MCF7, 48 hrs) was 9.82 mM. It also gave an IC50 ([1]; MCF7, 72 hrs) of 7.45 mM, a growth inhibition ([2]; MDA-MB-231, 10 mM HPβCD, all three time points) of ~45% and an IC50 ([2]; MDA-MB-231, 24 hrs) of 12.3 mM. The IC50 ([2]; MDA-MB-231, 48 hrs) was 11.2 mM, the IC50 ([2]; MDA-MB-231, 72 hrs) was 8.56 mM and the “lipid droplets (BODIPY) in treated vs untreated cells” value [3] was “decrease in lipid droplets”. The “Filipin fluorescence compared to untreated” value ([4]; MCF7, 10 mM HPβCD, 24 hrs, ImageJ) was “four times less fluorescence”, the “cholesterol (Filipin staining) in treated vs untreated cells” value ([4]; MCF7, FIG. 51) was “decreased cholesterol” and the “lipid rafts (ALEXA FLUOR) in treated vs untreated cells” value [5] was “decrease in lipid rafts”. For the same substance, the “necrosis, share of the total tumour examined” value ([6]; intermediate group) was 6-10%, the MITOSES ([6]; intermediate stage treated mice, one value per case) was 70 Atypical and 59 Atypical and 67 Atypical and the NECROSIS ([6]; intermediate stage treated mice, one value per case (INTM 13, 31, 32)) was “Focal necrosis; also recorded: Occasional; also recorded: Multiple pockets”. The “apoptotic cells compared to the intermediate group” value ([6]; late group) was 2.9 times, the “increase in number of apoptotic cells compared to the untreated group” value ([6]; late group) was ~1.7 fold and the “mitotic activity lower than in the other two groups” value ([6]; late group) was “approximately 1.1 times”. For the same substance, the “increase in necrosis compared to the untreated group” value ([6]; late group, case Late 12) was ~4 fold, the “necrosis, share of the tissue examined” value ([6]; late group, case Late 12) was “up to 20%” and the “APOPTOSIS/ 10 HPF” value [6, 16] was 21 and 30 and 39 and 32 and 27. For the same substance, the “EPID/ MUSCLE INV.” value [6, 16] was “No muscle present; also recorded: No muscle or epidermis; also recorded: Muscle invasion”, the MITOSES [6, 16] was 60 and 65 and 57 and 59 and 50 and the NECROSIS ([6]; late stage treated mice, one value per case (LATE 8 (1), 8 (2), 11, 12, 14)) was “Necrosis seen”. For the same substance, the “total cholesterol content compared to untreated” value [7] was “reduced total cholesterol content”, the “total cholesterol content compared to untreated” value [8] was “reduced total cholesterol content” and the “total cholesterol reduction compared to untreated” value ([9]; MRC-5, 10 mM HPβCD, 24 hrs) was “more than 50%”. The “total cholesterol content compared to untreated” value ([9]; MRC-5, all concentrations 1, 5, 10, 20, 50 mM) was “reduced total cholesterol content”, the “ROS production compared to untreated” value ([10]; MCF7, 10 mM HPβCD) was “about 2.5 fold” and the ROS generation ([10]; MCF7, 10 mM, 24 hrs) was 17.9%. For the same substance, the “ROS production compared to untreated” value ([11]; MDA-MB-231, 10 mM HPβCD) was “about 4 fold”, the ROS generation ([11]; MDA-MB-231, 10 mM, 24 hrs) was 13.7% and the “ROS production compared to untreated” value ([12]; MRC-5, 10 mM HPβCD) was ~4 folds. For the same substance, the ROS generation ([12]; MRC-5, 10 mM, 24 hrs) was 10.8%, the AST/ALT ratio ([13]; early and intermediate groups) was < 2 and the “ratio of AST/ALT” value ([13]; late group, mice serum post-euthanisation) was 2.2. The liver toxicity ([13]; mouse, in vivo, 3000 mg/kg) was “caused no toxicity”, the “genes involved in cholesterol related pathways” value [14] was “downregulated” and the ABCA1 gene expression ([15]; MDA-MB-231, HPβCD treated) was “upregulation”. The “genes involved in cholesterol related pathways” value ([15]; MDA-MB-231, majority of genes) was “downregulated”.
